# From ChEMBL document CHEMBL3714716, “Modulators of the relaxin receptor 1” (2015)
# The source made the active and inactive calls. The rule behind the calls is not given here.
# Key:
# Relaxin receptor 1 = molecular target: T1, Relaxin receptor 1 (Homo sapiens, UniProt Q9HBX9); test: Agonist activity at RXFP1 receptor (unknown origin) expressed in HEK293 cells assessed as stimulation of cAMP production incubated for 30 mins by TR-FRET based HTRF assay; assay type: functional, cell-based
# T1 sequence (Q9HBX9 whole entry): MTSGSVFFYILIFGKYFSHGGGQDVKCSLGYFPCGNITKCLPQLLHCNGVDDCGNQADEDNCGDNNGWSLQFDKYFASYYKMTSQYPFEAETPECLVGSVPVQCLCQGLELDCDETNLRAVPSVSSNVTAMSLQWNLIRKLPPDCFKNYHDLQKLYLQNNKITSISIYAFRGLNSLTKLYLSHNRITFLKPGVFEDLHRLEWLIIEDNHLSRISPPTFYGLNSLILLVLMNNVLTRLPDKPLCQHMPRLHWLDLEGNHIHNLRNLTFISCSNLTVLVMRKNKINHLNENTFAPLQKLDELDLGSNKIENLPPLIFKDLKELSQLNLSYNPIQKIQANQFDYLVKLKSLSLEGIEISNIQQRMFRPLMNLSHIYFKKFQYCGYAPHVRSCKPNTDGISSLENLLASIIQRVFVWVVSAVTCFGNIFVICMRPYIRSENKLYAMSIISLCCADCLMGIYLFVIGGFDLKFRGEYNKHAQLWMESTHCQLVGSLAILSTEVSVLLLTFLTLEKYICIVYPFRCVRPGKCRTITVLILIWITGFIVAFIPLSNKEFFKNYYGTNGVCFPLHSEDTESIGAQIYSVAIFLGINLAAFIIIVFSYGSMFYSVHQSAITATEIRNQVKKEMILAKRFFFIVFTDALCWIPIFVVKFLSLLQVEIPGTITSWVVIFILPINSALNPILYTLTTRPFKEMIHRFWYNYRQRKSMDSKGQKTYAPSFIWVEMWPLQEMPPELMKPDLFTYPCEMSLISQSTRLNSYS
# [1] = molecular target: T2, Relaxin receptor 1 (Homo sapiens) (UniProt Q9HBX9); test: Agonist activity at RXFP1 receptor (unknown origin) expressed in HEK293 cells assessed as stimulation of cAMP production incubated for 30 mins by TR-FRET based HTRF assay relative to forskolin; assay type: functional, cell-based
# T2 sequence (whole entry): T1 sequence (Q9HBX9 whole entry)
smiles,measurement,setting,value
O=C(NCc1ccco1)c1ccccc1NC(=O)C1CCCCC1,AC50,Relaxin receptor 1; hek293,Not Active
same,%max,[1],inactive
O=C(Nc1ccccc1C(=O)Nc1cccc(C(F)(F)F)c1)c1cccc(Cl)c1,AC50,Relaxin receptor 1; read-out: AC50,1.88 µM
same,%max,[1],96%
CCOc1ccccc1C(=O)Nc1ccccc1-c1nc2cc(C(F)(F)F)ccc2[nH]1,AC50,Relaxin receptor 1; read-out: AC50,149 µM
same,%max,[1],31%
O=C(Nc1ccc2c(c1)OCO2)c1ccccc1NC(=O)C1CCCCC1,AC50,Relaxin receptor 1; read-out: AC50,74.7 µM
same,%max,[1],58%
O=C(Nc1cccc(C(F)(F)F)c1)c1ccccc1NC(=O)C12CC3CC(CC(C3)C1)C2,AC50,Relaxin receptor 1; read-out: AC50,4.71 µM
same,%max,[1],87%
CCOc1ccccc1C(=O)Nc1ccccc1C(=O)Nc1cccnc1,AC50,Relaxin receptor 1; read-out: AC50,149 µM
same,%max,[1],37%
CCOc1ccccc1C(=O)Nc1ccccc1C(=O)Nc1ccccn1,AC50,Relaxin receptor 1; read-out: AC50,29.7 µM
same,%max,[1],74%
O=C(NCc1ccc(C(F)(F)F)cc1)c1ccccc1NC(=O)C1CCCCC1,AC50,Relaxin receptor 1; hek293,Not Active
same,%max,[1],inactive
O=C(Nc1cccc(C(F)(F)F)c1)c1ccccc1NC(=O)c1ccccc1OCCN1CCOCC1,AC50,Relaxin receptor 1; read-out: AC50,4.71 µM
same,%max,[1],98%
CCCCC(=O)Nc1ccccc1C(=O)Nc1cccc(C(F)(F)F)c1,AC50,Relaxin receptor 1; read-out: AC50,5.29 µM
same,%max,[1],94%
CCC(CC)C(=O)Nc1ccccc1C(=O)Nc1cccc(C(F)(F)F)c1,AC50,Relaxin receptor 1; read-out: AC50,5.29 µM
same,%max,[1],59%
CCOc1ccccc1C(=O)Nc1ccccc1C(=O)Nc1cccc(C#N)c1,AC50,Relaxin receptor 1; read-out: AC50,0.666 µM
same,%max,[1],96%
O=C(Nc1cccc(C(F)(F)F)c1)c1ccccc1-c1ccccc1OCc1ccccc1,AC50,Relaxin receptor 1; hek293,Not Active
same,%max,[1],inactive
O=C(Nc1cccc(C(F)(F)F)c1)c1ccccc1NC(=O)c1ccccc1OC(F)(F)F,AC50,Relaxin receptor 1; read-out: AC50,1.18 µM
same,%max,[1],96%
Cc1ccc(NC(=O)c2ccccc2NC(=O)C2CCCCC2)cc1,AC50,Relaxin receptor 1; read-out: AC50,187 µM
same,%max,[1],32%
CC1CCC(C(=O)Nc2ccccc2C(=O)Nc2cccc(C(F)(F)F)c2)CC1 (configuration not stated),AC50,Relaxin receptor 1; read-out: AC50,2.36 µM
same,%max,[1],92%
O=C(Nc1cccc(-c2ccc(C(F)(F)F)cc2)c1)c1ccccc1NC(=O)C1CCCCC1,AC50,Relaxin receptor 1; hek293,Not Active
same,%max,[1],inactive
CCOc1ccccc1C(=O)Nc1cnccc1C(=O)Nc1cccc(S(=O)(=O)C(F)(F)F)c1,AC50,Relaxin receptor 1; read-out: AC50,2.97 µM
same,%max,[1],99%
COc1ccccc1-c1ccccc1C(=O)Nc1cccc(C(F)(F)F)c1,AC50,Relaxin receptor 1; hek293,Not Active
same,%max,[1],inactive
CC(=O)Nc1ccccc1C(=O)Nc1cccc(C(F)(F)F)c1,AC50,Relaxin receptor 1; read-out: AC50,74.7 µM
same,%max,[1],51%
O=C(Nc1cccc(C(F)(F)F)c1)c1ccccc1NC(=O)c1ccccc1OCCN1CCNCC1,AC50,Relaxin receptor 1; hek293,Not Active
same,%max,[1],inactive
CN(C)CCCOc1ccccc1C(=O)Nc1ccccc1C(=O)Nc1cccc(C(F)(F)F)c1,AC50,Relaxin receptor 1; read-out: AC50,59.3 µM
same,%max,[1],66%
O=C(Nc1cccc(Br)c1)c1ccccc1NC(=O)C1CCCCC1,AC50,Relaxin receptor 1; read-out: AC50,2.65 µM
same,%max,[1],91%
CN(C)CCOc1ccccc1C(=O)Nc1cccc(C(F)(F)F)c1,AC50,Relaxin receptor 1; hek293,Not Active
same,%max,[1],inactive
CNCCOc1ccccc1C(=O)Nc1ccccc1C(=O)Nc1cccc(C(F)(F)F)c1,AC50,Relaxin receptor 1; read-out: AC50,3.74 µM
same,%max,[1],92%
O=C(Nc1ccccc1C(=O)Nc1cccc(C(F)(F)F)c1)c1cc(C(F)(F)F)cc(C(F)(F)F)c1,AC50,Relaxin receptor 1; read-out: AC50,4.2 µM
same,%max,[1],94%
O=C(Nc1cccc(C(F)(F)F)c1)c1ccccc1Nc1cccc(C(F)(F)F)c1,AC50,Relaxin receptor 1; read-out: AC50,4.2 µM
same,%max,[1],93%
CC(C)(C)OC(=O)Nc1ccccc1C(=O)Nc1cccc(C(F)(F)F)c1,AC50,Relaxin receptor 1; read-out: AC50,5.29 µM
same,%max,[1],79%
CCOc1ccccc1C(=O)Nc1ccccc1C(=O)Nc1cccc(C(C)(C)C)c1,AC50,Relaxin receptor 1; read-out: AC50,1.06 µM
same,%max,[1],93%
C/C=C/c1cccc(NC(=O)c2ccccc2NC(=O)c2ccccc2OCC)c1,AC50,Relaxin receptor 1; read-out: AC50,2.11 µM
same,%max,[1],84%
N#Cc1ccc(C(=O)Nc2ccccc2C(=O)Nc2cccc(C(F)(F)F)c2)cc1,AC50,Relaxin receptor 1; read-out: AC50,1.67 µM
same,%max,[1],96%
O=C(Nc1cccc(C(F)(F)F)c1)c1ccccc1NC(=O)C1CC1,AC50,Relaxin receptor 1; read-out: AC50,8.38 µM
same,%max,[1],79%
COc1ccccc1CNc1ccccc1C(=O)Nc1cccc(C(F)(F)F)c1,AC50,Relaxin receptor 1; read-out: AC50,59.3 µM
same,%max,[1],57%
O=CNc1ccccc1C(=O)Nc1cccc(C(F)(F)F)c1,AC50,Relaxin receptor 1; read-out: AC50,47.1 µM
same,%max,[1],78%
CCOc1ccccc1C(=O)Nc1cccc2c1C(=O)N(c1cccc(S(=O)(=O)C(F)(F)F)c1)C2,AC50,Relaxin receptor 1; hek293,Not Active
same,%max,[1],inactive
O=C(Nc1ccc2c(c1)CCC2)c1ccccc1NC(=O)C1CCCCC1,AC50,Relaxin receptor 1; read-out: AC50,9.4 µM
same,%max,[1],46%
O=C(Nc1cccc(C(F)(F)F)c1)c1cccc(NC(=O)C2CCCCC2)c1,AC50,Relaxin receptor 1; hek293,Not Active
same,%max,[1],inactive
O=C(Nc1cccc(N2CCCCC2)c1)c1ccccc1NC(=O)C1CCCCC1,AC50,Relaxin receptor 1; hek293,Not Active
same,%max,[1],inactive
O=C(Nc1cccc(C(F)(F)F)c1)c1ccccc1OCCN1CCCCC1,AC50,Relaxin receptor 1; hek293,Not Active
same,%max,[1],inactive
CCOc1ccccc1C(=O)Nc1ccncc1C(=O)Nc1cccc(S(=O)(=O)C(F)(F)F)c1,AC50,Relaxin receptor 1; read-out: AC50,0.747 µM
same,%max,[1],97%
CC(C)(C)c1ccc(NC(=O)c2ccccc2NC(=O)C2CCCCC2)cc1,AC50,Relaxin receptor 1; hek293,Not Active
same,%max,[1],inactive
O=C(Nc1cccc(C(F)(F)F)c1)c1ccccc1NC(=O)C1CCCCCC1,AC50,Relaxin receptor 1; read-out: AC50,2.11 µM
same,%max,[1],75%
O=C(Nc1ccccc1)c1ccccc1NC(=O)C1CCCCC1,AC50,Relaxin receptor 1; read-out: AC50,94 µM
same,%max,[1],57%
CC(C)(C)OC(=O)N1CCN(CCOc2ccccc2C(=O)Nc2ccccc2C(=O)Nc2cccc(C(F)(F)F)c2)CC1,AC50,Relaxin receptor 1; read-out: AC50,1.33 µM
same,%max,[1],94%
O=C(Nc1cccc(C(F)(F)F)c1)c1ccccc1NC(=O)C1CCCC1,AC50,Relaxin receptor 1; read-out: AC50,2.36 µM
same,%max,[1],88%
O=C(Nc1cccc(C(F)(F)F)c1)c1ccccc1NCCc1ccccc1,AC50,Relaxin receptor 1; read-out: AC50,9.4 µM
same,%max,[1],83%
Cc1ccc(CNC(=O)c2ccccc2NC(=O)C2CCCCC2)o1,AC50,Relaxin receptor 1; read-out: AC50,149 µM
same,%max,[1],31%
CC(=O)c1ccc(C(=O)Nc2ccccc2C(=O)Nc2cccc(C(F)(F)F)c2)cc1,AC50,Relaxin receptor 1; read-out: AC50,5.93 µM
same,%max,[1],71%
O=C(Nc1ccccc1C(=O)Nc1cccc(C(F)(F)F)c1)c1ccco1,AC50,Relaxin receptor 1; read-out: AC50,2.36 µM
same,%max,[1],81%
O=C(Nc1cccc(C(F)(F)F)c1)c1ccccc1NC(=O)c1ccccc1Oc1ccccc1,AC50,Relaxin receptor 1; read-out: AC50,0.747 µM
same,%max,[1],97%
COc1ccccc1C(=O)Nc1ccccc1C(=O)Nc1cccc(S(C)(=O)=O)c1,AC50,Relaxin receptor 1; read-out: AC50,6.66 µM
same,%max,[1],95%
O=C(Nc1cccc(I)c1)c1ccccc1NC(=O)C1CCCCC1,AC50,Relaxin receptor 1; read-out: AC50,2.97 µM
same,%max,[1],84%
O=C(Nc1cccc([N+](=O)[O-])c1)c1ccccc1NC(=O)C1CCCCC1,AC50,Relaxin receptor 1; read-out: AC50,5.93 µM
same,%max,[1],93%
O=C(Nc1ccc([N+](=O)[O-])cc1)c1ccccc1NC(=O)C1CCCCC1,AC50,Relaxin receptor 1; read-out: AC50,74.7 µM
same,%max,[1],56%
N#Cc1cccc(C(=O)Nc2ccccc2C(=O)Nc2cccc(C(F)(F)F)c2)c1,AC50,Relaxin receptor 1; read-out: AC50,2.1 µM
same,%max,[1],96%
O=C(Nc1cccc(C(F)(F)F)c1)c1ccccc1NC(=O)C1CCC1,AC50,Relaxin receptor 1; read-out: AC50,2.97 µM
same,%max,[1],75%
COCCOc1ccccc1C(=O)Nc1ccccc1C(=O)Nc1cccc(C(F)(F)F)c1,AC50,Relaxin receptor 1; read-out: AC50,0.747 µM
same,%max,[1],98%
CSc1cccc(NC(=O)c2ccccc2NC(=O)C2CCCCC2)c1,AC50,Relaxin receptor 1; read-out: AC50,5.29 µM
same,%max,[1],84%
O=C(Nc1cccc(C(F)(F)F)c1)c1ccccc1NCC1CCCCC1,AC50,Relaxin receptor 1; read-out: AC50,5.93 µM
same,%max,[1],77%
CN(C)CCCOc1ccccc1C(=O)Nc1cccc(C(F)(F)F)c1,AC50,Relaxin receptor 1; hek293,Not Active
same,%max,[1],inactive
O=C(Nc1ccccc1C(=O)Nc1cccc(S(=O)(=O)C(F)(F)F)c1)c1ccccc1I,AC50,Relaxin receptor 1; read-out: AC50,4.2 µM
same,%max,[1],85%
O=C(Nc1cccc(-c2cccs2)c1)c1ccccc1NC(=O)C1CCCCC1,AC50,Relaxin receptor 1; read-out: AC50,471 µM
same,%max,[1],31%
O=C(Nc1cccc(C(F)(F)F)c1)c1ccccc1NC(=O)c1ccccc1OCCN1CCCCC1,AC50,Relaxin receptor 1; read-out: AC50,2.65 µM
same,%max,[1],99%
O=C(Nc1cccc(C(F)(F)F)c1)c1ccccc1NC(=O)c1cccc2ccccc12,AC50,Relaxin receptor 1; read-out: AC50,5.93 µM
same,%max,[1],81%
O=C(Nc1cc(C(F)(F)F)ccc1F)c1ccccc1NC(=O)C1CCCCC1,AC50,Relaxin receptor 1; hek293,Not Active
same,%max,[1],inactive
O=C(Nc1ccccc1Br)c1ccccc1NC(=O)C1CCCCC1,AC50,Relaxin receptor 1; hek293,Not Active
same,%max,[1],inactive
CS(=O)(=O)c1cccc(NC(=O)c2ccccc2NC(=O)C2CCCCC2)c1,AC50,Relaxin receptor 1; read-out: AC50,118 µM
same,%max,[1],34%
O=C(Nc1cccc(S(=O)(=O)C(F)(F)F)c1)c1ccccc1NC(=O)C1CCCCC1,AC50,Relaxin receptor 1; read-out: AC50,1.06 µM
same,%max,[1],87%
O=C(Nc1ccccc1C(=O)Nc1cccc(C(F)(F)F)c1)c1cccc([N+](=O)[O-])c1,AC50,Relaxin receptor 1; read-out: AC50,1.06 µM
same,%max,[1],84%
CCOc1ccccc1C(=O)Nc1ccccc1C(=O)Nc1cccc(I)c1,AC50,Relaxin receptor 1; read-out: AC50,0.747 µM
same,%max,[1],96%
COCCNc1ccccc1C(=O)Nc1cccc(C(F)(F)F)c1,AC50,Relaxin receptor 1; read-out: AC50,59.3 µM
same,%max,[1],63%
